# What was measured:
# Assay type in all cases: biochemical
# PI3Kα = PI3Kα (Homo sapiens, UniProt P42336); assay: PI3K-alpha fluorescence polarization assay; settings: 20 μM PIP2, 25 μM ATP; read-out: PI3Kα Median IC50
# PI3Kγ = PI3Kγ (Homo sapiens, UniProt P48736); assay: PI3K-gamma fluorescence polarization assay; settings: 20 μM PIP2, 25 μM ATP; read-out: PI3Kγ Median IC50
# Procedure: PI3K-alpha and PI3K-gamma Fluorescence Polarization Assay Protocols
# The reaction buffer was 20 mM HEPES pH 7.5, 2 mM MgCl2, 0.05% CHAPS, and 0.01% βME (added fresh). The substrate solution was 40 μM PIP2 (diC8, Echelon, Salt Lake City Utah cat # P-4508, 1 mM in water) and 50 μM ATP in the reaction buffer. Nunc 384-well black polypropylene fluorescent plates were used for PI3K assays. The assay is run by putting 9.5 μl of freshly diluted enzyme in the reaction buffer per well, adding 0.5 μl of diluted drug or DMSO, and mixing. Then 10 μl of the substrate solution is added to each well to start the reaction. A final concentration of 20 μM PIP2 and 25 μM ATP in the reaction was used. Reactions were allowed to proceed for 30-60 minutes at room temperature. After 30-60 minutes, 20 μl of a solution of 10 nM TAMRA detector (Red detector probe-Echelon) and 2.5 μM of GST-murineGRP (1.5 mg/ml in 17% glycerol) was added per well to stop the reaction. The resulting solution was mixed well and allowed to stand for 90-110 minutes before reading plate. Assay Plates were read on Perkin-Elmer Envision plate readers with appropriate filters for Tamra [BODIPY-TMRI(1,3,4,5)P4]. Data obtained were used to calculate enzymatic activity and enzyme inhibition by inhibitor compounds. It is important to keep Red probe solutions dark. This procedure is adapted from Echelon Biosciences Inc procedure for their PI3-Kinase fluorescence polarization activity Assay kit Product number K-1100.
# mTOR Kinase (FLAG-TOR) = target: T1, mTOR Kinase (FLAG-TOR) (Homo sapiens, UniProt P42345); assay: mTOR kinase assay, purified enzyme, DELFIA format; settings: 100 μM ATP, 1.25 μM His6-S6K; read-out: mTOR Kinase Median IC50
# T1 construct: FLAG
# Sequence of PI3Kα (P42336 whole entry, species assumed): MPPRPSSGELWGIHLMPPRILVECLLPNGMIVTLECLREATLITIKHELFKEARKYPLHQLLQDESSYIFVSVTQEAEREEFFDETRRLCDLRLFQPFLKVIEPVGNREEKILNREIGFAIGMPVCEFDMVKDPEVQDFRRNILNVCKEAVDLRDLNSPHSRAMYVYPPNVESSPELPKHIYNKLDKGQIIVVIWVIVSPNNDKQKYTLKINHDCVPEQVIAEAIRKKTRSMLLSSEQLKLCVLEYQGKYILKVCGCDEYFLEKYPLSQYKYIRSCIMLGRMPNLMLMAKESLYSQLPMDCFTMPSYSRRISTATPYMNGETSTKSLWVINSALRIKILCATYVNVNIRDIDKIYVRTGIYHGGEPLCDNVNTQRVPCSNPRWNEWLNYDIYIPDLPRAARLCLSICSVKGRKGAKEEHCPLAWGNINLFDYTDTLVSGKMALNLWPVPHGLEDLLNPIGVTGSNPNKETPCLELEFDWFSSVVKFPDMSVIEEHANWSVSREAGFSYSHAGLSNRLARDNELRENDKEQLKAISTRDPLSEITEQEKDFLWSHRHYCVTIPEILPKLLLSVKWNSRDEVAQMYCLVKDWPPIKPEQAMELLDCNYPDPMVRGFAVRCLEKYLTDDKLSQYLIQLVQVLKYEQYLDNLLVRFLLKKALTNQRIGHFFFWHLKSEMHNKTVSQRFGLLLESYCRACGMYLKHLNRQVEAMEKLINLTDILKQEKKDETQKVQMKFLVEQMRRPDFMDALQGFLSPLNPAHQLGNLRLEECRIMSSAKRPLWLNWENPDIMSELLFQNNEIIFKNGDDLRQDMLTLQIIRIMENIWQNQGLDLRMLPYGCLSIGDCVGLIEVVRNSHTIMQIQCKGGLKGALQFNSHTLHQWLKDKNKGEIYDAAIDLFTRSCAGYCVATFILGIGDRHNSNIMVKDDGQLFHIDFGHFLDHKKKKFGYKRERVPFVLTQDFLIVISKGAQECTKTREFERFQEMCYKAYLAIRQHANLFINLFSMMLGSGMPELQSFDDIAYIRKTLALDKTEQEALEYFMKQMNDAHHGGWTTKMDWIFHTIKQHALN
# Sequence of PI3Kα (P27986 whole entry partner, species assumed): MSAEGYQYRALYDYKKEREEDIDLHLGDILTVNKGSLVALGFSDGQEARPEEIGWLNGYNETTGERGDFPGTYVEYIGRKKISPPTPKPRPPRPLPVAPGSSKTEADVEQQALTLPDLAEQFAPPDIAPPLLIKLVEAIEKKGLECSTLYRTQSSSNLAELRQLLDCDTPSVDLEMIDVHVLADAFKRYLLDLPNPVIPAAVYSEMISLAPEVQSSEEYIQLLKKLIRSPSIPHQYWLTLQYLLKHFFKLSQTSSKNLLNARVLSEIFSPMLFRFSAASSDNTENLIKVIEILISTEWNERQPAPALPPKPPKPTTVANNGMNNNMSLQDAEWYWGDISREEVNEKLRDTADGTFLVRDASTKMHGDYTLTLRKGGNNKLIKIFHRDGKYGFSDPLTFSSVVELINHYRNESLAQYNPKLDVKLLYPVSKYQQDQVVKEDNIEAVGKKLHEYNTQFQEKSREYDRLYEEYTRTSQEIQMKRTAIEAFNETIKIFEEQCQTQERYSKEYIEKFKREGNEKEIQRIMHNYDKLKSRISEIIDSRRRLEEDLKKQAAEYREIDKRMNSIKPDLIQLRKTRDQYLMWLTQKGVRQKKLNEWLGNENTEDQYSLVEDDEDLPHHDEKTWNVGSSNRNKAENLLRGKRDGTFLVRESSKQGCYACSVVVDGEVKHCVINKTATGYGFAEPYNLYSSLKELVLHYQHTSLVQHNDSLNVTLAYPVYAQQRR
# Sequence of PI3Kγ (P48736 whole entry, species assumed): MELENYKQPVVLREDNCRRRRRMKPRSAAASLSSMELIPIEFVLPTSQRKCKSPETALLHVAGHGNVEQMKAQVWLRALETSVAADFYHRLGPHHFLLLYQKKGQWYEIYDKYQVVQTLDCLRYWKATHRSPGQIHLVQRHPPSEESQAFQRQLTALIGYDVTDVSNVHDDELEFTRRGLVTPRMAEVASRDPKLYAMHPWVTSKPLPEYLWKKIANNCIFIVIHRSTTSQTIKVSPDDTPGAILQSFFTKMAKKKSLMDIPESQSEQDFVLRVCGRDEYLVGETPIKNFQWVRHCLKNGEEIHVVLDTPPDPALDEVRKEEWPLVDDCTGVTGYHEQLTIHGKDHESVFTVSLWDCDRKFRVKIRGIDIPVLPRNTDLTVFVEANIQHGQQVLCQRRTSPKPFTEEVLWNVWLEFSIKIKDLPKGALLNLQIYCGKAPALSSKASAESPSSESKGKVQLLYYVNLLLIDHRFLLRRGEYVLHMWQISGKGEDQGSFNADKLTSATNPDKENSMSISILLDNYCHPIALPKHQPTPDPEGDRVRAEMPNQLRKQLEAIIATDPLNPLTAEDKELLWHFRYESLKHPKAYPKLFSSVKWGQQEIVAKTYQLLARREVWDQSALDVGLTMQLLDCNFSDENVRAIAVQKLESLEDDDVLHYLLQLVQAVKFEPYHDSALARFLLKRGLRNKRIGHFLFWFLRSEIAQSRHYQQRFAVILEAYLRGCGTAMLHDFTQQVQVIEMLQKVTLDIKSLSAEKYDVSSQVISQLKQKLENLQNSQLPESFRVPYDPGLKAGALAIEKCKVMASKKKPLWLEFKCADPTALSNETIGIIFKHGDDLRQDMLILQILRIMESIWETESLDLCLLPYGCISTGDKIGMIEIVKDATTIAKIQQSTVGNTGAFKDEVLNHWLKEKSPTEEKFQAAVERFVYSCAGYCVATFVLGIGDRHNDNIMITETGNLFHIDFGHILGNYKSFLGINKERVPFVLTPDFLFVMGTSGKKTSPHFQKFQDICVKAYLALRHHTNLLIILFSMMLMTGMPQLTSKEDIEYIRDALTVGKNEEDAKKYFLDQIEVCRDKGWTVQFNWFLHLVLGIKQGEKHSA
SMILES,IC50 (PI3Kα),IC50 (PI3Kγ),IC50 (mTOR Kinase (FLAG-TOR))
"CN(C)CCn1ccc2c(N3CCOCC3)nc(-c3ccc(NC(=O)Nc4cccnc4)cc3)nc21 [Compound 9, 1-(4-{7-[2-(dimethylamino)ethyl]-4-morpholin-4-yl-7H-pyrrolo[2,3-d]pyrimidin-2-yl}phenyl)-3-pyridin-3-ylurea]",–,102 nM,2.95 nM
"CN(C)CCn1ccc2c(N3CCOCC3)nc(-c3cccc(CO)c3)nc21 [Compound 7, (3-{7-[2-(dimethylamino)ethyl]-4-morpholin-4-yl-7H-pyrrolo[2,3-d]pyrimidin-2-yl}phenyl)methanol]",–,712 nM,> 800 nM
"CN(C)CCn1ccc2c(N3CCOCC3)nc(-c3ccc(NC(=O)NCCc4c[nH]c5ccccc45)cc3)nc21 [Compound 18, 1-(4-{7-[2-(dimethylamino)ethyl]-4-morpholin-4-yl-7H-pyrrolo[2,3-d]pyrimidin-2-yl}phenyl)-3-[2-(1H-indol-3-yl)ethyl]urea]",1400 nM,2180 nM,102 nM
"CNC(=O)Nc1ccc(-c2nc(N3CCOCC3)c3ccn(CCN(C)C)c3n2)cc1 [Compound 17, 1-(4-{7-[2-(dimethylamino)ethyl]-4-morpholin-4-yl-7H-pyrrolo[2,3-d]pyrimidin-2-yl}phenyl)-3-methylurea]",–,813 nM,33 nM
"CN(C)CCn1ccc2c(N3CCOCC3)nc(-c3cccc(O)c3)nc21 [Compound 6, 3-{7-[2-(dimethylamino)ethyl]-4-morpholin-4-yl-7H-pyrrolo[2,3-d]pyrimidin-2-yl}phenol]",–,1680 nM,> 800 nM
"O=C(Nc1ccncc1)Nc1ccc(-c2nc(N3CCOCC3)c3cc[nH]c3n2)cc1 [Compound 4, 1-[4-(4-morpholin-4-yl-7H-pyrrolo[2,3-d]pyrimidin-2-yl)phenyl]-3-pyridin-4-ylurea]",–,65 nM,–
"O=CCn1ccc2c(N3CCOCC3)nc(-c3ccc(NC(=O)Nc4ccncc4)cc3)nc21 [Compound 22, 1-{4-[4-morpholin-4-yl-7-(2-oxoethyl)-7H-pyrrolo[2,3-d]pyrimidin-2-yl]phenyl}-3-pyridin-4-ylurea]",–,7 nM,–
"COC(Cn1ccc2c(N3CCOCC3)nc(-c3ccc(NC(=O)Nc4ccncc4)cc3)nc21)OC [Compound 21, 1-{4-[7-(2,2-dimethoxyethyl)-4-morpholin-4-yl-7H-pyrrolo[2,3-d]pyrimidin-2-yl]phenyl}-3-pyridin-4-ylurea]",–,170 nM,–
"CN(C)CCn1ccc2c(N3CCOCC3)nc(-c3ccc(NC(=O)Nc4ccccn4)cc3)nc21 [Compound 11, 1-(4-{7-[2-(dimethylamino)ethyl]-4-morpholin-4-yl-7H-pyrrolo[2,3-d]pyrimidin-2-yl}phenyl)-3-pyridin-2-ylurea]",–,626 nM,–
"CN(C)CCn1ccc2c(N3CCOCC3)nc(-c3ccc(NC(=O)Nc4ccc(F)cc4)cc3)nc21 [Compound 13, 1-(4-{7-[2-(dimethylamino)ethyl]-4-morpholin-4-yl-7H-pyrrolo[2,3-d]pyrimidin-2-yl}phenyl)-3-(4-fluorophenyl)urea]",–,176 nM,7.75 nM
"Oc1cccc(-c2nc(N3CCOCC3)c3cc[nH]c3n2)c1 [Compound 2, 3-(4-morpholin-4-yl-7H-pyrrolo[2,3-d]pyrimidin-2-yl)phenol]",–,338 nM,–
"OCc1cccc(-c2nc(N3CCOCC3)c3cc[nH]c3n2)c1 [Compound 1, [3-(4-morpholin-4-yl-7H-pyrrolo[2,3-d]pyrimidin-2-yl)phenyl]methanol]",–,752 nM,–
"CN(C)CCn1ccc2c(N3CCOCC3)nc(-c3ccc(NC(=O)Nc4ccncc4)cc3)nc21 [Compound 12, 1-(4-{7-[2-(dimethylamino)ethyl]-4-morpholin-4-yl-7H-pyrrolo[2,3-d]pyrimidin-2-yl}phenyl)-3-pyridin-4-ylurea]",11 nM,36 nM,–
"CCNC(=O)Nc1ccc(-c2nc(N3CCOCC3)c3ccn(CCN(C)C)c3n2)cc1 [Compound 16, 1-(4-{7-[2-(dimethylamino)ethyl]-4-morpholin-4-yl-7H-pyrrolo[2,3-d]pyrimidin-2-yl}phenyl)-3-ethylurea]",–,538 nM,30 nM

# The remaining lines, values ahead:
IC50 (PI3Kα),IC50 (PI3Kγ),IC50 (mTOR Kinase (FLAG-TOR)),SMILES
140 nM,1540 nM,4.9 nM,"CCn1ccc2c(N3CCOCC3)nc(-c3ccc(NC(=O)NC)cc3)nc21 [Compound 96, 1-[4-(7-ethyl-4-morpholin-4-yl-7H-pyrrolo[2,3-d]pyrimidin-2-yl)phenyl]-3-methylurea]"
–,774 nM,–,"O=C(Nc1ccncc1)Nc1ccc(-c2nc(N3CCOCC3)c3ccn(CCN4CCCCC4)c3n2)cc1 [Compound 24, 1-{4-[4-morpholin-4-yl-7-(2-piperidin-1-ylethyl)-7H-pyrrolo[2,3-d]pyrimidin-2-yl]phenyl}-3-pyridin-4-ylurea]"
2 nM,11 nM,4.5 nM,"CN(C)CCOc1ccc(NC(=O)Nc2ccc(-c3nc(N4CCOCC4)c4ccn(CC(F)(F)F)c4n3)cc2)cc1 [Compound 58, 1-{4-[2-(dimethylamino)ethoxy]phenyl}-3-{4-[4-morpholin-4-yl-7-(2,2,2-trifluoroethyl)-7H-pyrrolo[2,3-d]pyrimidin-2-yl]phenyl}urea]"
8 nM,36 nM,5.65 nM,"CCn1ccc2c(N3CCOCC3)nc(-c3ccc(NC(=O)Nc4ccc(C(=O)N5CCN(c6ccccn6)CC5)cc4)cc3)nc21 [Compound 75, 1-[4-(7-ethyl-4-morpholin-4-yl-7H-pyrrolo[2,3-d]pyrimidin-2-yl)phenyl]-3-{4-[(4-pyridin-2-ylpiperazin-1-yl)carbonyl]phenyl}urea]"
11000 nM,> 10000 nM,1350 nM,"CC(C)(C)OC(=O)N1CCC(n2ccc3c(N4CCOCC4)nc(-c4ccc(NC(=O)Nc5cccnc5)cc4)nc32)CC1 [Compound 94, tert-butyl 4-(4-morpholin-4-yl-2-{4-[(pyridin-3-ylcarbamoyl)amino]phenyl}-7H-pyrrolo[2,3-d]pyrimidin-7-yl)piperidine-1-carboxylate]"
–,27 nM,1.7 nM,"CN(C)C1CCN(C(=O)c2ccc(NC(=O)Nc3ccc(-c4nc(N5CCOCC5)c5ccn(CC(F)(F)F)c5n4)cc3)cc2)CC1 [Compound 57, 1-(4-{[4-(dimethylamino)piperidin-1-yl]carbonyl}phenyl)-3-{4-[4-morpholin-4-yl-7-(2,2,2-trifluoroethyl)-7H-pyrrolo[2,3-d]pyrimidin-2-yl]phenyl}urea]"
–,424 nM,–,"CN(C)CCNCCn1ccc2c(N3CCOCC3)nc(-c3ccc(NC(=O)Nc4ccncc4)cc3)nc21 [Compound 27, 1-{4-[7-(2-{[2-(dimethylamino)ethyl]amino}ethyl)-4-morpholin-4-yl-7H-pyrrolo[2,3-d]pyrimidin-2-yl]phenyl}-3-pyridin-4-ylurea]"
–,317 nM,24 nM,"CN1CCN(CCn2ccc3c(N4CCOCC4)nc(-c4ccc(NC(=O)Nc5ccncc5)cc4)nc32)CC1 [Compound 28, 1-(4-{7-[2-(4-methylpiperazin-1-yl)ethyl]-4-morpholin-4-yl-7H-pyrrolo[2,3-d]pyrimidin-2-yl}phenyl)-3-pyridin-4-ylurea]"
–,36 nM,–,"O=C(Nc1ccncc1)Nc1ccc(-c2nc(N3CCOCC3)c3ccn(CCN4CCNCC4)c3n2)cc1 [Compound 29, 1-{4-[4-morpholin-4-yl-7-(2-piperazin-1-ylethyl)-7H-pyrrolo[2,3-d]pyrimidin-2-yl]phenyl}-3-pyridin-4-ylurea]"
–,370 nM,–,"O=C(Nc1ccncc1)Nc1ccc(-c2nc(N3CCOCC3)c3ccn(CCN4CCCC4)c3n2)cc1 [Compound 23, 1-{4-[4-morpholin-4-yl-7-(2-pyrrolidin-1-ylethyl)-7H-pyrrolo[2,3-d]pyrimidin-2-yl]phenyl}-3-pyridin-4-ylurea]"
4 nM,40 nM,–,"O=C(Nc1ccncc1)Nc1ccc(-c2nc(N3CCOCC3)c3ccn(CCO)c3n2)cc1 [Compound 34, 1-{4-[7-(2-hydroxyethyl)-4-morpholin-4-yl-7H-pyrrolo[2,3-d]pyrimidin-2-yl]phenyl}-3-pyridin-4-ylurea]"
–,63 nM,–,"O=C(Nc1ccncc1)Nc1ccc(-c2nc(N3CCOCC3)c3ccn(CC(F)(F)F)c3n2)cc1 [Compound 36, 1-{4-[4-morpholin-4-yl-7-(2,2,2-trifluoroethyl)-7H-pyrrolo[2,3-d]pyrimidin-2-yl]phenyl}-3-pyridin-4-ylurea]"
–,14 nM,0.48 nM,"CN(C)CCN(C)C(=O)c1ccc(NC(=O)Nc2ccc(-c3nc(N4CCOCC4)c4ccn(CC(F)(F)F)c4n3)cc2)cc1 [Compound 51, N-[2-(dimethylamino)ethyl]-N-methyl-4-[({4-[4-morpholin-4-yl-7-(2,2,2-trifluoroethyl)-7H-pyrrolo[2,3-d]pyrimidin-2-yl]phenyl}carbamoyl)amino]benzamide]"
